Structures are written as SMILES.

The first test addresses T1, α2AAR (α2A-adrenergic receptor) (Homo sapiens, UniProt P08913).
T1 construct: expressed in transfected cells; host or cells: HEK293
T1 sequence (P08913 1-465): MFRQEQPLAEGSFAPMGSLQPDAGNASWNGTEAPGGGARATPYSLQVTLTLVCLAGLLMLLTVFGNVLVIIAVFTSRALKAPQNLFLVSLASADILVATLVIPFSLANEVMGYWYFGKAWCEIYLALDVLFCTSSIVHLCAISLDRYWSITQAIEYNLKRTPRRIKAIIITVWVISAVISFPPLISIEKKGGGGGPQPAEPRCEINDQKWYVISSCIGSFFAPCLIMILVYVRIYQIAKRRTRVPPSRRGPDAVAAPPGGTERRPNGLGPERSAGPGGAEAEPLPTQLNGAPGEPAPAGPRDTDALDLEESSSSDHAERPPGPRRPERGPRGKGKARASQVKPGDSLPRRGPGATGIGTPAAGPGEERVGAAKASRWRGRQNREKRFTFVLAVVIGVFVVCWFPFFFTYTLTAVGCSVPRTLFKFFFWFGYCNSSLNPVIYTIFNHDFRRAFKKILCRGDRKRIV
The test is described as follows: α2AAR FLIPR assay (agonist activity). The settings on record: FLIPR, α2AAR cell line hosted in HEK293 cells; read-out: α2A agonist activity (EC50). Type of test: cell-based. On the procedure: This experimental protocol involved cell seeding and a FLIPR assay using the α2AAR (α2A-adrenergic receptor) cell line hosted in HEK293 cells. […] On Day 1, the cell seeding process started with the removal of the culture medium, followed by rinsing the cells with DPBS (21-031-CVC, Corning). […] The cells were detached, resuspended in growth media, and centrifuged at room temperature at 1000 rpm for 5 minutes. After discarding the supernatant, the cell pellet was resuspended in growth media to a concentration of 10× 10^5 cells per mL. This suspension was added to 384-well plates (19-Jul-38, Greiner) at 20 μL per well and incubated overnight at 37° C. in 5% CO2.
A 250 mM Probenecid solution was prepared in this buffer. The Fluo-4 Direct™ Loading Buffer was made by dissolving Fluo-4 Direct™ crystals (F10471, Invitrogen) in the FLIPR Assay Buffer and adding Probenecid. The buffer was then vortexed and allowed to stand for over 5 minutes, shielded from light. For the FLIPR procedure, testing compounds for agonist activite were serially diluted and transferred to a 384-well compound plate (25-Jan-39, Greiner). The cell plate was then treated with 2× Fluo-4 Direct™ loading buffer and incubated for 50 minutes at 37° C. in a 5% CO2 atmosphere, followed by 10 minutes at room temperature. Subsequently, the FLIPR assay buffer was added to the compound plate, which is then centrifuged.
The cell plate was analyzed in the FLIPR Tetra+ System for fluorescence signals. For the agonist test, reference compounds were added to the cell plates, and fluorescence was measured. The “Max-Min” calculation began from Read 1 to the maximum allowed. The data were analyzed using Prism software to calculate activation percentage for agonists and inhibition percentage for antagonists. The results were then fitted using specific models to determine EC50 for agonists.
The experimental protocol utilized various reagents and apparatus, including Penicillin/Streptomycin (100×) (SV30010, Hyclone), Poly-L-lysine hydrobromide (P1399, Sigma), and different types of 384-well plates such as the 384-Well PP 2.0 Microplate (PP-0200, LABCYTE) and 384 well Low Dead Volume Microplate (LP-0200, LABCYTE). The use of specific reference compounds like UK14304 was also integral to the assay.
Consider `CONC(=O)c1cccc(C(c2c[nH]cn2)c2cccc(C)c2C)c1` (single isomer, unassigned) [1-A], for which the EC50 (commonly the concentration at which the effect is half-maximal) was greater than 1000 nM.

Turning to `Cc1cccc(C(c2cccc(C(N)=O)c2)c2c[nH]cn2)c1C` (single isomer, unassigned) [5-A], the concentration giving a half-maximal response (EC50) is greater than 1000 nM.

Turning to `Cc1cccc(C(c2cccc(NC(=O)CC#N)c2)c2c[nH]cn2)c1C` (single isomer, unassigned) [10-A], the concentration giving a half-maximal response (EC50) is greater than 1000 nM. Still for that read-out and setting: the same measure for `CNC(=O)NCCOCCOCC(c1c[nH]cn1)c1cccc(C)c1C` (single isomer, unassigned) [17-A]: greater than 1000 nM; for `Cc1cccc(C(c2cccc(C(=O)NC3CCOCC3)c2)c2c[nH]cn2)c1C` (single isomer, unassigned) [121-A]: greater than 1000 nM; for `Cc1cccc(C(Cc2ccc(C(C)C(=O)O)cc2)c2c[nH]cn2)c1C` (single isomer, unassigned) [174-A]: greater than 1000 nM. As for `Cc1cccc(C(Cc2ccc(C(C)C(=O)O)cc2)c2c[nH]cn2)c1C` (single isomer, unassigned) [174-C], the half-maximal effective concentration (EC50) fell in the range of 250 to 1000 nM. Regarding `Cc1cccc(C(c2cccc(C(=O)NCCO)c2)c2c[nH]cn2)c1C` (centres unmarked) [compound 2], the EC50 lay within 10 to 50 nM.

The next test concerns the target T2, α2AAR (Homo sapiens, UniProt P08913).
T2 construct: host or cells: HEK293 (membranes)
T2 sequence (P08913 1-465): T1 sequence (P08913 1-465)
The test is described as follows: α2AAR binding assay ([3H]-RX 821002 radioligand). The note with it: [3H]-RX 821002 0.5 nM, HEK293 membranes; read-out: α2A affinity (Ki). On the procedure: The α2AR Binding Assay was conducted using a stable HEK293 cell line, specifically constructed by WuXi AppTec for targeting α2AAR. […] Both the assay and wash buffers consist of 50 mM Tris-HCl at a pH of 7.4 (Tris base, Sigma, T1503-1 KG).
The procedure initiated with the preparation of test compounds and a reference compound, yohimbine (Sigma, Y3125), through an 8-point 4-fold serial dilution, transferring 1 μL of each to the assay plate. […] After scaling, the plates were agitated at room temperature for one hour. Subsequently, the Unifilter-96 GF/C filter plates were pre-soaked with 0.3% PEI (Sigma, P3143) for at least half an hour. The reaction mixtures were then filtered and washed four times with cold wash buffer using a Perkin Elmer Cell harvester. Post-filtration, the plates were dried at 50° C. for one hour. […] The top of the plates was then sealed with TopSeal-A sealing film. The trapped 3H was quantified using a Perkin Elmer MicroBeta2 Reader. […] Finally, the data were analyzed with Prism 5.0 software, employing the “log (inhibitor) vs. response-Variable slope” model for data fitting. This comprehensive process ensured precise assessment of the binding affinity of compounds to the α2AAR.
As to `Cc1cccc(C(c2cccc(NC(=O)c3cn[nH]c3)c2)c2c[nH]cn2)c1C` (centres unmarked) [compound 87], the Ki – broadly, the equilibrium dissociation constant of an inhibitor or competing ligand from its target – fell in the range of 50 to 250 nM. Regarding `Cc1cccc(C(c2cccc(C(=O)NOCCN3CCOCC3)c2)c2c[nH]cn2)c1C` (centres unmarked) [compound 91], the inhibition constant (Ki) lay within 50 to 250 nM. On to `Cc1cccc(C(c2c[nH]cn2)C2CCCC(C(N)=O)C2)c1C` (centres unmarked) [compound 92], for which the inhibition constant (Ki) is greater than 1000 nM.

With `Cc1cccc(C(CCOCCOCCNS(C)(=O)=O)c2c[nH]cn2)c1C` (centres unmarked) [compound 93], the inhibitory constant (Ki) lay in the range of 250 to 1000 nM. On the same count and under the same terms, the value for `Cc1cccc(C(c2c[nH]cn2)N2CCc3ccc(NS(C)(=O)=O)cc32)c1C` (centres unmarked) [compound 106] was 50 to 250 nM; that for `Cc1cccc(C(c2cccc(NC(=O)CN3CCNCC3)c2)c2c[nH]cn2)c1C` (centres unmarked) [compound 107] was 50 to 250 nM; that for `Cc1cccc(C(c2cccc(NC(=O)CN(C)C)c2)c2c[nH]cn2)c1C` (centres unmarked) [compound 110] was 50 to 250 nM.

For the compound `Cc1c(F)cccc1C(c1cccc(NC(=O)CC2CCOCC2)c1)c1c[nH]cn1` (centres unmarked) [compound 113], the Ki lay within 50 to 250 nM.

In the case of `Cc1cccc(C(c2cccc(CN3CCCCC3)c2)c2c[nH]cn2)c1C` (centres unmarked) [compound 114], the Ki was greater than 1000 nM. For `Cc1c(CO)cccc1C(c1cccc(NS(C)(=O)=O)c1)c1c[nH]cn1` (centres unmarked) [compound 115], the Ki was 250 to 1000 nM. Still for that read-out and setting: the value for `Cc1cccc(C(c2cccc(COCCNS(C)(=O)=O)c2)c2c[nH]cn2)c1C` (centres unmarked) [compound 116] was 10 to 50 nM; that for `Cc1cccc(C(c2cccc(CCN3CCC(O)CC3)c2)c2c[nH]cn2)c1C` (centres unmarked) [compound 125] was 10 to 50 nM. Consider `CNS(=O)(=O)Nc1cccc(C(c2c[nH]cn2)c2cccc(C)c2C)c1` (centres unmarked) [compound 127], for which the Ki was in the range of 10 to 50 nM. On the same count and under the same terms, the value for `CNC(=O)Nc1cccc(C(c2c[nH]cn2)c2cccc(C)c2C)c1` (centres unmarked) [compound 128] was 50 to 250 nM. Turning to `C=CC(=O)Nc1cccc(C(c2c[nH]cn2)c2cccc(C)c2C)c1` (centres unmarked) [compound 129], the inhibitory constant (Ki) was in the range of 50 to 250 nM. The same measure, in the same setting: the value for `Cc1csc(CCS(=O)(=O)Nc2cccc(C(c3c[nH]cn3)c3cccc(C)c3C)c2)n1` (centres unmarked) [compound 131] was 10 to 50 nM; that for `COc1ccccc1C(c1cccc(NC(=O)CC2CCOCC2)c1)c1c[nH]cn1` (centres unmarked) [compound 132] was 50 to 250 nM. Regarding `COc1ccccc1C(c1cccc(NS(C)(=O)=O)c1)c1c[nH]cn1` (centres unmarked) [compound 135], the Ki was in the range of 50 to 250 nM.

`CCc1ccccc1C(c1cccc(NS(C)(=O)=O)c1)c1c[nH]cn1` (centres unmarked) [compound 140]: the Ki lay within 50 to 250 nM. For the compound `Cc1cccc(C(Cc2cccc(NS(=O)(=O)CC3CCOCC3)c2)c2c[nH]cn2)c1C` (centres unmarked) [compound 142], the Ki is less than 10 nM. Still for that read-out and setting: the value for `Cc1cccc(C(c2cccc(NC(=O)CC[N+](C)(C)C)c2)c2c[nH]cn2)c1C` (centres unmarked) [compound 144] was 50 to 250 nM; that for `CONC(=O)c1cc(C(c2c[nH]cn2)c2cccc(C)c2C)cs1` (centres unmarked) [compound 182] was 50 to 250 nM. Regarding `Cc1cccc(C(CCc2ccccc2NS(C)(=O)=O)c2c[nH]cn2)c1C` (centres unmarked) [compound 183], the inhibition constant Ki is 250 to 1000 nM. Same read-out and setting: the value for `Cc1cccc(C(CC23CC4CC(C2)CC(C(N)=O)(C4)C3)c2c[nH]cn2)c1C` (centres unmarked) [compound 188] was greater than 1000 nM. Still for that read-out and setting: the same measure for `Cc1cccc(C(c2cccc(NS(=O)(=O)CCc3cncnc3)c2)c2c[nH]cn2)c1C` (centres unmarked) [compound 189]: 10 to 50 nM. For `Cc1cccc(C(CCCCNS(C)(=O)=O)c2c[nH]cn2)c1C` (centres unmarked) [compound 191], the Ki lay in the range of 50 to 250 nM. As for `Cc1cccc(C(Cc2ccc(P(=O)(O)O)cc2)c2c[nH]cn2)c1C` (centres unmarked) [compound 199], the inhibitory constant (Ki) was greater than 1000 nM. For the compound `Cc1cccc(C(Cc2ccc(C(N)=O)nc2)c2c[nH]cn2)c1C` (centres unmarked) [compound 238], the Ki lay within 50 to 250 nM. On the same count and under the same terms, the value for `Cc1cccc(C(CCCCCC(N)=O)c2c[nH]cn2)c1C` (centres unmarked) [compound 240] was 250 to 1000 nM.

Regarding `Cc1cccc(C(CCCCNS(=O)(=O)C2CCOCC2)c2c[nH]cn2)c1C` (centres unmarked) [compound 250], the inhibition constant (Ki) was in the range of 50 to 250 nM.

`Cc1csc(C)c1C(c1cccc(NS(C)(=O)=O)c1)c1c[nH]cn1` (centres unmarked) [compound 402]: the Ki is 250 to 1000 nM. Regarding `CS(=O)(=O)Nc1cccc(CC(C2=NCCN2)c2c(Cl)cccc2Cl)c1` (centres unmarked) [compound 501], the Ki was in the range of 250 to 1000 nM. The same measure, in the same setting: the same measure for `NC(=O)c1cccc(CC(Oc2c(Cl)cccc2Cl)C2=NCCN2)c1` (centres unmarked) [compound 502]: 50 to 250 nM; for `Cc1cccc(C(NC2=NCCS2)c2cccc(NS(C)(=O)=O)c2)c1C` (centres unmarked) [compound 504]: 50 to 250 nM. On the same count and under the same terms, the same measure for `Cc1cccc(C(NC2=NCCS2)c2cccc(NC(=O)CC3CCOCC3)c2)c1C` (centres unmarked) [compound 507]: 10 to 50 nM; for `CONC(=O)c1cccc(C(NC2=NCCS2)c2ccccc2OC)c1` (centres unmarked) [compound 508]: 250 to 1000 nM; for `Cc1cccc(C(Cc2cccc(NS(C)(=O)=O)c2)C2=NCCN2)c1C` (centres unmarked) [compound 510]: 50 to 250 nM. Same read-out and setting: the same measure for `CONC(=O)c1cccc(CC(NC2=NCCS2)c2cccc(C)c2C)c1` (centres unmarked) [compound 511]: less than 10 nM; for `CONC(=O)c1cccc(CC(NC2=NCCS2)c2cccc(Cl)c2Cl)c1` (centres unmarked) [compound 512]: less than 10 nM; for `CONC(=O)c1cc(CC(NC2=NCCS2)c2ccccc2OC)ccn1` (centres unmarked) [compound 513]: less than 10 nM. With `COc1ccccc1C(NC1=NCCS1)c1cccc(NC(=O)CC2CCOCC2)c1` (centres unmarked) [compound 514], the Ki lay in the range of 50 to 250 nM.

As for `Cc1cccc(C(Cc2ccc(NS(C)(=O)=O)cc2)C2=NCCN2)c1C` (centres unmarked) [compound 518], the Ki fell in the range of 50 to 250 nM. With `COCCOCc1cccc(Cl)c1NC1=NCCN1` [compound 520], the inhibitory constant (Ki) lay within 250 to 1000 nM.

The same test, now with this note: α2A affinity (Ki, nM).
The compound `Cc1cccc(C(CCCNS(C)(=O)=O)c2c[nH]cn2)c1C` (centres unmarked) [compound 184] came in with a Ki of 250 to 1000 nM. Regarding `Cc1cccc(C(CCCCCNS(C)(=O)=O)c2c[nH]cn2)c1C` (centres unmarked) [compound 249], the Ki fell in the range of 50 to 250 nM.

The record behind these values is US20240374573A1, “IMIDAZOLE CONTAINING COMPOUNDS, DERIVATIVES THEREFORE, AND USES THEREOF” (AglaeaPharma Inc., priority 2023, published 2024).
